According to the supplement of paper PMC4977894:
± gives the standard deviation of the averaged measurements.

How the values were obtained:
[1] = test system: Homo sapiens (human subject panel, olfactory perception); test: perceived odor intensity rating (rating 0-100); higher = stronger perceived smell
Procedure, shortened: (§1)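 Values for familiarity, intensity and pleasantness are averaged over subjects. The panel of 55 healthy people aged 18–50 excluded the six lowest performers and rated each paraffin-oil dilution of a molecule at high and low concentrations. Ratings were made only for stimuli the subject reported smelling, on a slider converted to a 0–100 scale.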

[2] = test system: Homo sapiens (human subject panel, olfactory perception); test: perceived odor familiarity rating (rating 0-100); higher = more familiar
Procedure, shortened: as §1

[3] = test system: Homo sapiens (human subject panel, olfactory perception); test: perceived odor pleasantness rating (rating 0-100); higher = more pleasant
Procedure, shortened: as §1

[4] = odor dilution in paraffin oil: 1/1,000
[5] = odor dilution in paraffin oil: 1/100,000
[6] = odor dilution in paraffin oil: 1/10,000,000
[7] = odor dilution in paraffin oil: 1/10

Structure (SMILES)	perceived odor intensity rating [1, 4]	perceived odor intensity rating [1, 5]	perceived odor familiarity rating [2, 4]	perceived odor familiarity rating [2, 5]	perceived odor pleasantness rating [3, 4]	perceived odor pleasantness rating [3, 5]	perceived odor intensity rating [1, 6]	perceived odor familiarity rating [2, 6]	perceived odor pleasantness rating [3, 6]	perceived odor intensity rating [1, 7]	perceived odor familiarity rating [2, 7]	perceived odor pleasantness rating [3, 7]
CCCOC(C)=O [propyl acetate]	43.8 ± 36	24.5 ± 26	55.1 ± 30	41.6 ± 28	43.5 ± 24	49 ± 20	–	–	–	–	–	–
CCCOC(=O)CCC [propyl butyrate]	64.7 ± 27	36.7 ± 31	52.5 ± 27	39.4 ± 27	42.5 ± 27	33.6 ± 25	–	–	–	–	–	–
CCCSCCC [propyl sulfide]	–	28.1 ± 31	–	29.4 ± 28	–	44.5 ± 28	11.6 ± 12	34.7 ± 38	40.7 ± 25	–	–	–
c1cnccn1 [pyrazine]	18.9 ± 22	38.5 ± 32	35.4 ± 27	36.8 ± 28	44.8 ± 21	39.6 ± 24	–	–	–	–	–	–
c1ccncc1 [pyridine]	–	21.5 ± 23	–	33.7 ± 29	–	46.8 ± 24	13 ± 21	28 ± 28	54.2 ± 25	–	–	–
O=Cc1ccccc1O [salicylaldehyde]	77.9 ± 19	53.5 ± 28	51.7 ± 31	39.9 ± 28	30.6 ± 26	39.5 ± 23	–	–	–	–	–	–
CC(C)(C)O [tert-butanol]	24.8 ± 30	–	34.7 ± 29	–	58.8 ± 22	–	–	–	–	56 ± 32	47.5 ± 32	44.9 ± 24
Cc1ccc(C(C)C)c(O)c1 [thymol]	71.1 ± 23	39.2 ± 30	55.8 ± 32	49.7 ± 29	41.8 ± 27	48.5 ± 24	–	–	–	–	–	–
C/C=C/C=C/CO [trans,trans-2,4-Hexadien-1-ol]	45.5 ± 30	14.4 ± 18	45.1 ± 32	36.4 ± 30	48 ± 23	49.6 ± 23	–	–	–	–	–	–
C/C=C/C=C/COC(C)=O [trans,trans-2,4-Hexadienyl acetate (replicate)]	23.5 ± 26	–	30.6 ± 27	–	49.5 ± 25	–	–	–	–	19.1 ± 20	30.4 ± 25	47.6 ± 22
C/C=C/C=C/COC(C)=O [trans,trans-2,4-Hexadienyl acetate]	22 ± 23	–	35.5 ± 27	–	51.3 ± 24	–	–	–	–	13.9 ± 24	24.8 ± 27	39.4 ± 25
CCC/C=C/COC(C)=O [trans-2-Hexenyl acetate]	64.3 ± 27	38.3 ± 30	52.4 ± 30	38.8 ± 26	41.2 ± 30	49 ± 24	–	–	–	–	–	–
CCCCC/C=C/CO [trans-2-Octen-1-ol]	69.6 ± 26	27.6 ± 28	46.4 ± 32	31 ± 31	36.5 ± 28	50.8 ± 22	–	–	–	–	–	–
C/C=C/c1ccc(OC)cc1 [trans-Anethole]	64.3 ± 28	30.8 ± 30	74 ± 26	40 ± 32	62.1 ± 26	51.3 ± 23	–	–	–	–	–	–
O=C(O)/C=C/c1ccccc1 [trans-Cinnamic acid]	59.5 ± 30	–	46.5 ± 32	–	28.4 ± 28	–	–	–	–	72.3 ± 23	51.5 ± 31	52.7 ± 30
CCC(=O)OC/C=C/c1ccccc1 [trans-Cinnamyl propionate]	46.3 ± 30	23.7 ± 29	45.5 ± 29	36.7 ± 28	50.8 ± 23	46.9 ± 24	–	–	–	–	–	–
CCCCCCCCCCC=O [undecanal]	68.2 ± 28	20.4 ± 26	47.9 ± 32	28.2 ± 25	36.2 ± 26	50 ± 21	–	–	–	–	–	–
CCCCCCCCCCC [undecane]	21 ± 26	–	35 ± 29	–	53.3 ± 23	–	–	–	–	56.4 ± 31	41.7 ± 32	32.3 ± 21
CCCCC=O [valeraldehyde]	–	41.3 ± 30	–	43.7 ± 26	–	43 ± 25	18.8 ± 22	38.9 ± 28	49.8 ± 26	–	–	–
CCCCC(=O)O [valeric acid]	–	47.2 ± 29	–	31.6 ± 29	–	24.7 ± 22	34.9 ± 32	45.2 ± 34	37.5 ± 23	–	–	–
COc1cc(C=O)ccc1O [vanillin]	74.4 ± 22	–	80.7 ± 21	–	84 ± 20	–	–	–	–	72.1 ± 23	82.6 ± 18	86.3 ± 15
